“And” between values parts separate entries of the source, which are not always exact repeats. Equal entries are not always repeated. Where two headings read alike, the source gives them in different places.
Assays:
SARS-CoV-2 [1] = assay: microbe, parasite or virus in culture; assay type: cell-based; details: for %infected: HeLa-ACE2, replicates n=1, n=2
[2] = Uninfected HeLa-ACE2 24 h live/dead cytotoxicity counter screen; assay type: cell-based, human; details: human, uninfected HeLa-ACE2 cells, reconfirmed hits; read-out: HeLa-ACE2 Uninf. cells CC50
HeLa-ACE2 cells [3] = assay: as above; assay type: cell-based, human; details: for cytotox: HeLa-ACE2
SARS-CoV-2 [4] = assay: microbe, parasite or virus in culture; assay type: cell-based; details: for %infected: Calu-3, replicates n=1, n=2
SARS-CoV-2 [5] = assay: microbe, parasite or virus in culture; assay type: cell-based; details: for TOA: HeLa-ACE2, replicates n=1
SARS-CoV-2 [6] = assay type: cell-based; details: 72 hpi
HeLa-ACE2 cells [7] = assay: Total cell count in the HeLa-ACE2 TOA assay; assay type: cell-based; details: Homo sapiens
Source text: Supplement 41467_2021_23328_MOESM3_ESM.xlsx, sheet "Table S1" | column: HeLa-ACE2 TOA cell count

Calu-3 cells [8] = system: Calu-3 cells
HeLa-ACE2 cells [9] = assay: cells; details: Homo sapiens, HeLa-ACE2, read-out: HeLa-ACE2 cell count EC50 GeoMean
Calu-3 cells [10] = assay: cells; details: Homo sapiens
in vitro = details: human
[11] = cited from earlier work

In the case of O=c1nc(NO)ccn1[C@@H]1O[C@H](CO)[C@@H](O)[C@H]1O [N-hydroxycytidine], the “%infected” value (SARS-CoV-2 [1]; concentration log[M] -5.01818) is reported as -95.9068% and -95.703% and -94.602% and -97.3369% and -96.6026% and -97.2941%, the “%infected” value (SARS-CoV-2 [1]; concentration log[M] -5.54106) is reported as -65.3775% and -59.3515% and -63.9298% and -52.8807% and -12.9328% and -65.202% and the “%infected” value (SARS-CoV-2 [1]; concentration log[M] -6.01818) is reported as -30.1084% and -28.1968% and -26.2247% and 6.562% and 13.7937% and -28.207%. For the same compound, the “%infected” value (SARS-CoV-2 [1]; concentration log[M] -6.42366) was -20.845% and -20.4031% and 6.3056% and 22.7531% and 23.3232% and -10.0334%, the “%infected” value (SARS-CoV-2 [1]; concentration log[M] -6.90066) was -9.321% and -9.37% and 63.7122% and 19.7824% and -5.072% and -8.1% and the “%infected” value (SARS-CoV-2 [1]; concentration log[M] -7.37799) was -5.474% and -4.047% and 10.6164% and 29.7413% and 17.9839% and -7.442%. For the same compound, the “%infected” value (SARS-CoV-2 [1]; concentration log[M] -7.85511) was -5.151% and -0.8478% and 5.043% and 11.903% and -2.081% and 8.512%, the “%infected” value (SARS-CoV-2 [1]; concentration log[M] -8.34746) was 2.419% and 1.409% and -2.874% and 18.1053% and 10.6681% and -1.579% and the Emax (SARS-CoV-2 [1]; Severe acute respiratory syndrome coronavirus 2, HeLa-ACE2, 24 h, curve plateau at infinite concentration, read-out: HeLa-ACE2 CoV-2 Sinf Average) was 100%. The EC50 (SARS-CoV-2 [1]; Severe acute respiratory syndrome coronavirus 2, HeLa-ACE2, reconfirmed hits, read-out: HeLa-ACE2 SARS-CoV-2 EC50) was 2.07 µM, the CC50 at 24 h [2] was greater than 37.5 µM and the cytotox (HeLa-ACE2 cells [3]; concentration log[M] -4.40012, replicates n=1, n=2) was -52.5894 and -47.3606 and -59.8571 and -45.9651 and -54.0657 and -40.7828. The cytotox (HeLa-ACE2 cells [3]; concentration log[M] -4.82681, replicates n=1, n=2) was -38.4391 and -39.4796 and -38.1429 and -39.2039 and -43.0802 and -30.2326, the cytotox (HeLa-ACE2 cells [3]; concentration log[M] -5.30277, replicates n=1, n=2) was -30.8534 and -12.119 and -16 and -17.6118 and -29.9408 and -19.0017 and the cytotox (HeLa-ACE2 cells [3]; concentration log[M] -5.82681, replicates n=1, n=2) was -4.449 and -6.9145 and -4 and -19.1385 and -7.754 and 0.2836. The cytotox (HeLa-ACE2 cells [3]; concentration log[M] -6.25414, replicates n=1, n=2) was -16.849 and -13.6059 and -16.5714 and -13.1407 and -8.078 and -16.506, the cytotox (HeLa-ACE2 cells [3]; concentration log[M] -6.73049, replicates n=1, n=2) was -10.2845 and 8.996 and -3.286 and -2.1265 and -9.908 and -9.472 and the cytotox (HeLa-ACE2 cells [3]; concentration log[M] -7.25727, replicates n=1, n=2) was 1.386 and -4.089 and -25.4286 and -12.8135 and -14.6473 and -10.7204. For the same compound, the cytotox (HeLa-ACE2 cells [3]; concentration log[M] -7.68403, replicates n=1, n=2) was -8.534 and -5.279 and -6.286 and -2.672 and -11.8471 and 1.418, the cytotox (HeLa-ACE2 cells [3]; concentration log[M] -8.16052, replicates n=1, n=2) was -5.325 and 4.535 and -3.571 and -9.869 and -22.4017 and -12.0817 and the cytotox (HeLa-ACE2 cells [3]; concentration log[M] -8.59517, replicates) was -2.261 and -3.197 and -3.429 and -6.707 and -1.077 and -11.9682. The “HeLa-ACE2 uninfected cytotoxicity Sinf Average” value (HeLa-ACE2 cells [3]; curve plateau at infinite concentration) was -100%, the “%infected” value (SARS-CoV-2 [4]; concentration log[M] -5.00096) was -104.882% and -104.039% and -104.073% and -87.0522% and -95.3104% and -95.1991% and the “%infected” value (SARS-CoV-2 [4]; concentration log[M] -5.47808) was -102.424% and -94.8216% and -96.2613% and -79.6455% and -88.2245% and -78.3438%. The “%infected” value (SARS-CoV-2 [4]; concentration log[M] -6.08014) was -48.1883% and -55.6504% and -62.6482% and -43.1506% and -54.549% and -44.7088%, the “%infected” value (SARS-CoV-2 [4]; concentration log[M] -6.42922) was -25.3967% and -10.7735% and -12.1745% and -21.3919% and -25.2933% and -26.102% and the “%infected” value (SARS-CoV-2 [4]; concentration log[M] -6.90623) was 2.702% and -5.189% and -14.5454% and -5.7089% and 20.5633% and -23.5818%. The “%infected” value (SARS-CoV-2 [4]; concentration log[M] -7.50836) was 7.0582% and -3.1% and 10.044% and -11.1778% and -10.264% and 16.3735%, the “%infected” value (SARS-CoV-2 [4]; concentration log[M] -7.85886) was -6.015% and 34.2889% and -1.001% and -2.481% and -24.9588% and 14.4808% and the “%infected” value (SARS-CoV-2 [4]; concentration log[M] -8.33602) was 34.4513% and -7.593% and -0.3699% and -1.01% and 8.564% and 15.1555%. The Emax (SARS-CoV-2 [4]; Severe acute respiratory syndrome coronavirus 2, Calu-3, 48 h, curve plateau at infinite concentration, read-out: Calu-3 CoV-2 Sinf Average) was 102%, the EC50 (SARS-CoV-2 [4]; Severe acute respiratory syndrome coronavirus 2, Calu-3, reconfirmed hits, read-out: Calu-3 SARS-CoV-2 EC50) was 0.803 µM and the TOA (SARS-CoV-2 [5]; concentration log[M] -5.01818) was -88.6412 and -82.7703 and -80.6006. The TOA (SARS-CoV-2 [5]; concentration log[M] -5.54106) was -32.1719 and -27.0134 and -25.6358, the TOA (SARS-CoV-2 [5]; concentration log[M] -6.01818) was -19.1217 and -14.6661 and -4.943 and the TOA (SARS-CoV-2 [5]; concentration log[M] -6.42366) was 4.0678 and -1.902 and 3.9754. The TOA (SARS-CoV-2 [5]; concentration log[M] -6.90066) was 9.161 and 4.654 and 6.517, the TOA (SARS-CoV-2 [5]; concentration log[M] -7.37799) was 8.185 and 12.3603 and -5.097 and the TOA (SARS-CoV-2 [5]; concentration log[M] -7.85511) was -1.637 and 10.875 and -15.0843. The TOA (SARS-CoV-2 [5]; concentration log[M] -8.34746) was 4.125 and 6.481 and 1.9398, the Emax (SARS-CoV-2 [5]; Severe acute respiratory syndrome coronavirus 2, HeLa-ACE2, 10 h, curve plateau at infinite concentration, read-out: HeLa-ACE2 TOA CoV-2 Sinf Average) was 100% and the EC50 (SARS-CoV-2 [5]; Severe acute respiratory syndrome coronavirus 2, HeLa-ACE2, read-out: HeLa-ACE2 TOA CoV-2 EC50 GeoMean) was 4.06 µM. For the same compound, the “reduction in apical viral loads” value (SARS-CoV-2 [6]) was greater than 1 log, the Emax (HeLa-ACE2 cells [7]; HeLa-ACE2, 10 h, read-out: HeLa-ACE2 TOA cell count Sinf Average) was 100% and the EC50 (HeLa-ACE2 cells [7]; HeLa-ACE2, read-out: HeLa-ACE2 TOA cell count EC50 GeoMean) was greater than 9.59 µM. For the same compound, the “uninfected Calu-3 CC50” value (Calu-3 cells [8]) was 29.85 ×÷ 1 (n=2) μM, the “Calu-3 uninfected cytotoxicity Sinf Average” value (Calu-3 cells [8]; human, 48 h) was -100% and the EC50 (HeLa-ACE2 cells [9]) was greater than 9.59 µM. It also gave an Emax (Calu-3 cells [10]; Calu-3, 48 h, read-out: Calu-3 cell count Sinf Average) of 100%, an EC50 (Calu-3 cells [10]; Calu-3, read-out: Calu-3 cell count EC50 GeoMean) of 2.3 µM and a CC50 at 48 h (in vitro; Calu-3 Uninf. cells CC50 (µM)) greater than 29.9 µM. For the same compound, the CC50 at 48 h (in vitro; Calu-3 uninfected cytotoxicity CC50 GeoMean) was 29.9 µM, the “Approx. t1/2” value ([11]; NHP, ref [45]) was 1 h and the Cmax ([11]; in vivo, po) was 3.3 µM.
